From patent US9403831B2, “Triazolopyrazine derivative and use thereof” (KOREA RESEARCH INSTITUTE OF CHEMICAL TECHNOLOGY, priority 2013, dated 2016)
Structures can show the parent of a compound that is named as a salt.

Key:
c-Met enzyme = c-Met enzyme (Homo sapiens (Human), UniProt P08581); experiment: c-Met kinase inhibitory activity (DELFIA time-resolved fluorescence); assay type: biochemical; settings: c-Met kinase activity reduced to 50%
Experimental: The c-Met kinase inhibitory activity was analyzed using dissociation enhanced lanthanide fluoro-immunoassay (DELFIA, Perkin Elmer), which is a kind of time-resolved fluorescence (TRF). […] of the compound prepared in the present invention, as a test compound, was put in a Greiner 96-well V-shaped bottom plate, and a tyrosin kinase buffer ([…]) mixed with a c-Met enzyme was added thereto, and then the enzyme and the test compound were stirred for 15 minutes, followed by culturing. An ATP solution ([…]) was added thereto to proceed with a kinase reaction at room temperature for 30 minutes, and then a 50 mM […] solution (EDTA, […]) was added to stop the reaction. After that, the reaction mixture was transferred to a plate coated with Streptavidin, followed by culturing under shaking. After 2 hours, the cultured material was washed three times with a PBS-T buffer (PBS 0.05% Tween 20).
The europium-labeled anti-phosphotyrosine antibody was diluted to 1:[…] of the diluent was added per well, followed by culturing under shaking. After 1 hour, the cultured material was washed three times with a PBS-T buffer (PBS 0.05% Tween 20).

[1] = test system: gastric cancer cell line Hs746T; experiment: Cancer cell proliferation inhibitory test (SRB or MTS assay, 72 hours); assay type: cell-based; settings: Homo sapiens, cancer cell (Hs746T) proliferation inhibition, culturing with compound for 72 hours
Experimental: The drug used in the test was diluted to a desired concentration as a test medium, and the final concentration of dimethyl sulfoxide was 0.5% or less.
All the cancer cell lines used in the test originated from the human body, and gastric cancer cell lines Hs746T and MKN-45 were used.
5×10^3 cells of Hs746T were dispensed to each well of the 96-well flat bottom micro-plate. MKN-45 was dispensed at 1×10^4 cells. The cells were cultured for 24 hours, so that the cells adhered to the bottom, and then the culture liquid was removed. The culture liquid containing each of the compounds of the present invention was added, followed by culturing for 72 hours. After the culturing with the compound was completed, the cytotoxicity was measured using protein stain reagent SRB or MTS assay.
Specifically, after the culturing with the compound of the present invention was completed, the cultured liquid was removed. Each well was treated with a cool TCA solution, and allowed to stand at 4° C. for 1 hour to fix cells. The TCA solution was removed, followed by drying at room temperature, and then a stain solution containing 0.4% SRB dissolved in 1% acetic acid solution was added, and then the mixture was allowed to stand for 30 minutes to stain cells. […] The absorbance of each well was measured at a wavelength range of 520 nm using an Eliza reader (micro-plate reader).
The drug cytotoxicity was measured from the OD values for the well added without the drug (C), each well added with the drug (T), and the well initially added with the drug (Tz): [(T−Tz)/(C−Tz)]×100 for […]; or [(T−Tz)/(Tz)]×100 for Tz>T.
The cancer cell inhibitory activity measurement using MTS assay was conducted as follows. Specifically, after the culturing with the compound of the present invention was completed, the PMS solution and MTS solution constituting the CellTiter 96® AQueous Non-Radioactive Cell Proliferation Assay product from Promega Co. were mixed, and 20 μL was put into each well. After the cells were placed in an incubator for 4 hours, and then taken out and allowed to stand at room temperature for 10 minutes.

Chain of c-Met enzyme (P08581 25-1390): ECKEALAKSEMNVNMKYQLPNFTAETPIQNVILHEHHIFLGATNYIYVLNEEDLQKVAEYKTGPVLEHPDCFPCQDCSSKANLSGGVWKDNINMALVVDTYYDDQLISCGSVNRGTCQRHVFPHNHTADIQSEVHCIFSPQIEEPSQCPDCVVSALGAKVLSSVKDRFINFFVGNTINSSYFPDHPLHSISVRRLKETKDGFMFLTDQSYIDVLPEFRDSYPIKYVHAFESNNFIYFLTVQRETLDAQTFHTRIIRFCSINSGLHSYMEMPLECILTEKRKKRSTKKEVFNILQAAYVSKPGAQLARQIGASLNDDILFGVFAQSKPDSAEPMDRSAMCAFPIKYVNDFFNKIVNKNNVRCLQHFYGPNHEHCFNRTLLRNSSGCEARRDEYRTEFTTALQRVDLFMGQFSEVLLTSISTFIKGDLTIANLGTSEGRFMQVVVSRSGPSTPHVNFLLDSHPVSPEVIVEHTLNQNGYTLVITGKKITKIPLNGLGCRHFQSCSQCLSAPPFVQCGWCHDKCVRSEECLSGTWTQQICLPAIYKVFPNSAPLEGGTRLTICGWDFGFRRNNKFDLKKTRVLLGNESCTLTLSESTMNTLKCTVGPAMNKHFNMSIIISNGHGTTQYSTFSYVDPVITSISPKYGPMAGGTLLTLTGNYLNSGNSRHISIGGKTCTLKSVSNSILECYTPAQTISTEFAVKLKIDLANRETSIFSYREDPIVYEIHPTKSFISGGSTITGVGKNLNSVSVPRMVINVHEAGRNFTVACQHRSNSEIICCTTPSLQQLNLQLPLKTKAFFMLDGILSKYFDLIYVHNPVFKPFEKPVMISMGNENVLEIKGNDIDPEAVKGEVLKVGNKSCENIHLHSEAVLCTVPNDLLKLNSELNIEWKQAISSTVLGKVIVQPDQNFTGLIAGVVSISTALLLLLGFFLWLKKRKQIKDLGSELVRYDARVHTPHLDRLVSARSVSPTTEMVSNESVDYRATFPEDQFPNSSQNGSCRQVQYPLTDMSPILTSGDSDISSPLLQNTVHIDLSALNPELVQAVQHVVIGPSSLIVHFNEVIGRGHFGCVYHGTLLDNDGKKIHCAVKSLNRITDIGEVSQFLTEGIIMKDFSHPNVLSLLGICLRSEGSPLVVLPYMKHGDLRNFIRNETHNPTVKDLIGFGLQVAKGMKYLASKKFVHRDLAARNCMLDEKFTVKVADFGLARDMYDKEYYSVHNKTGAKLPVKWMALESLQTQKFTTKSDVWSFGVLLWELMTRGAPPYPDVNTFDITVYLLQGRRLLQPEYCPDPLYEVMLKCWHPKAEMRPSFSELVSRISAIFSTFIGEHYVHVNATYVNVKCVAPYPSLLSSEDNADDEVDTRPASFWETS

SMILES | IC50 (c-Met enzyme) [nM] | IC50 [1] [nM]
CN1CCC(n2cc(-c3cnc(N4CCO[C@H](Cn5nnc6ncc(-c7cnn(C)c7)nc65)C4)nc3)cn2)CC1 [Chemical formula 7, (S)-2-((6-(1-methyl-1H-pyrazol-4-yl)-1H-[1,2,3]triazolo[4,5-b]pyrazin-1-yl)methyl)-4-(5-(1-(1-methylpiperidin-4-yl)-1H-pyrazol-4-yl)pyrimidin-2-yl)morpholine] | 6 | 0.11
Cn1cc(-c2cnc3nnn(CC4CCCN(c5ncc(C6=CCNCC6)cn5)C4)c3n2)cn1 (stereo not drawn) [Chemical formula 33, 6-(1-methyl-1H-pyrazol-4-yl)-1-((1-(5-(1,2,3,6-tetrahydropyridin-4-yl)pyrimidin-2-yl)piperidin-3-yl)methyl)-1H-[1,2,3]triazolo[4,5-b]pyrazinehydrochloride] | 3 | 9.5
Cn1cc(-c2cnc3nnn(C[C@@H]4CN(c5ncc(-c6cnn(C7CCNCC7)c6)cn5)CCO4)c3n2)cn1 [Chemical formula 4, (S)-2-((6-(1-methyl-1H-pyrazol-4-yl)-1H-[1,2,3]triazolo[4,5-b]pyrazin-1-yl)methyl)-4-(5-(1-(piperidin-4-yl)-1H-pyrazol-4-yl)pyrimidin-2-yl)morpholine HCl salt] | 11 | 1.2
Cn1cc(-c2cnc3nnn(C[C@@H]4CN(c5ncc(-c6ccc(CN7CCOCC7)cc6)cn5)CCO4)c3n2)cn1 [Chemical formula 18, (S)-2-((6-(1-methyl-1H-pyrazol-4-yl)-1H-[1,2,3]triazolo[4,5-b]pyrazin-1-yl)methyl)-4-(5-(4-(morpholinomethyl)phenyl)pyrimidin-2-yl)morpholine] | 5 | 9.6
Cn1cc(-c2cnc3nnn(C[C@@H]4CN(c5ncc(-c6cnn(C7CCN(CCO)CC7)c6)cn5)CCO4)c3n2)cn1 [Chemical formula 8, (S)-2-(4-(4-(2-(2-((6-(1-methyl-1H-pyrazol-4-yl)-1H-[1,2,3]triazolo[4,5-b]pyrazin-1-yl)methyl)morpholino)pyrimidin-5-yl)-1H-pyrazol-1-yl)piperidin-1-yl)ethanol] | 4 | 0.14
Cn1cc(-c2cnc3nnn(C[C@@H]4CN(c5ncc(C6=CCN(CCO)CC6)cn5)CCO4)c3n2)cn1 [Chemical formula 12, (S)-2-(4-(2-(2-((6-(1-methyl-1H-pyrazol-4-yl)-1H-[1,2,3]triazolo[4,5-b]pyrazin-1-yl)methyl)morpholino)pyrimidin-5-yl)-5,6-dihydropyridin-1(2H)-yl)ethanol] | 4 | 0.96

Continued, values first:

IC50 (c-Met enzyme) [nM] | IC50 [1] [nM] | SMILES
2 | 0.11 | N#Cc1cc(-c2cnc3nnn(C[C@@H]4CN(c5ncc(C6=CCNCC6)cn5)CCO4)c3n2)ccc1F [Chemical formula 30, (S)-2-fluoro-5-(1-((4-(5-(1,2,3,6-tetrahydropyridin-4-yl)pyrimidin-2-yl)morpholine-2-yl)methyl)-1H-[1,2,3]triazolo[4,5-b]pyrazin-6-yl)benzonitrile]
2 | 3.8 | Cn1cc(-c2cnc3nnn(CC4CCCN(c5ncc(-c6cnn(CCO)c6)cn5)C4)c3n2)cn1 (stereo not drawn) [Chemical formula 36, 2-(3-(2-(3-((6-(1-methyl-1H-pyrazol-4-yl)-1H-[1,2,3]triazolo[4,5-b]pyrazin-1-yl)methyl)piperidin-1-yl)pyrimidin-5-yl)-1H-pyrazol-1-yl)ethanolhydrochloride]
3 | 2 | Cn1cc(-c2cnc3nnn(CC4CCCN(c5ncc(C6=CCN(CCO)CC6)cn5)C4)c3n2)cn1 (stereo not drawn) [Chemical formula 35, 2-(4-(2-(3-((6-(1-methyl-1H-pyrazol-4-yl)-1H-[1,2,3]triazolo[4,5-b]pyrazine-1-yl)methyl)piperidin-1-yl)pyrimidin-5-yl)-5,6-dihydropyridin-1(2H)-yl)ethanol]
